{
  "source": "patent US10654828B2",
  "about": "(NOVARTIS AG, priority 2017, dated 2020)",
  "key": {"FoxO3a": {"tested_on": "FoxO3a", "assay": "FoxO3a inhibition: GFP-FoxO3a nuclear to cytoplasmic translocation reporter assay", "format": "cell-based", "settings": "Homo sapiens, U2OS, 0.5 h, U2OS GFP-FoxO3a H212R cells, serum starved overnight, compound 30 minutes; ratio of nuclear to cytosolic GFP intensity; DMSO control 0%; read-out: FoxO AC50", "method_in_brief": "(§1)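 Serum-starved U2OS cells expressing GFP-FoxO3a H212R treated with compounds 30 min, fixed, imaged. FoxO3a: nuclear/cytosolic GFP ratio, %. AKT: total cellular phospho-AKT (Ser473) antibody staining intensity, %. DMSO set as 0% activity.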"}, "AKT": {"tested_on": "AKT", "assay": "AKT activation: Phospho-AKT (Ser473) antibody staining in reporter cells", "format": "cell-based", "settings": "Homo sapiens, U2OS, 0.5 h, U2OS GFP-FoxO3a H212R cells, serum starved overnight, compound 30 minutes; total cellular intensity of Phospho-AKT (Ser473) staining; DMSO control 0%", "method_in_brief": "as §1"}},
  "data": [
    {"smiles": "Cc1cc(C(N)=O)nn1-c1ccc2c(ccn2Cc2ccc([C@H]3C[C@H]4CNC[C@H]4C3)cc2)c1", "note": "[Example 39, 5-methyl-1-(1-(4-((3aR,5r,6aS)-octahydrocyclopenta[c]pyrrol-5-yl)benzyl)-1H-indol-5-yl)-1H-pyrazole-3-carboxamide]", "values": [
      {"measurement": "AC50", "setting": "FoxO3a", "result": 175, "unit": "nM"},
      {"measurement": "AC50", "setting": "AKT", "result": 907, "unit": "nM"}
    ]},
    {"smiles": "Cc1cc(C(N)=O)nn1-c1ccc2c(ccn2Cc2ccc([C@@H]3C[C@@H]4CN(CC5CC5)C[C@@H]4C3)cc2)c1", "note": "[Example 40, 1-(1-(4-((3aR,5r,6aS)-2-(cyclopropylmethyl)octahydrocyclopenta[c]pyrrol-5-yl)benzyl)-1H-indol-5-yl)-5-methyl-1H-pyrazole-3-carboxamide]", "values": [
      {"measurement": "AC50", "setting": "FoxO3a", "result": 161, "unit": "nM"},
      {"measurement": "AC50", "setting": "AKT", "result": 1220, "unit": "nM"}
    ]},
    {"smiles": "Cc1cc(C(N)=O)nn1-c1ccc2c(ccn2Cc2ccc([C@@H]3C[C@@H]4CN(S(C)(=O)=O)C[C@@H]4C3)cc2)c1", "note": "[Example 41, 5-methyl-1-(1-(4-((3aR,5r,6aS)-2-(methylsulfonyl)octahydrocyclopenta[c]pyrrol-5-yl)benzyl)-1H-indol-5-yl)-1H-pyrazole-3-carboxamide]", "values": [
      {"measurement": "AC50", "setting": "FoxO3a", "result": 113, "unit": "nM"},
      {"measurement": "AC50", "setting": "AKT", "result": 304, "unit": "nM"}
    ]},
    {"smiles": "Cc1cc(C(N)=O)nn1-c1ccc2c(ccn2Cc2ccc([C@@H]3C[C@@H]4CN(CCS(C)(=O)=O)C[C@@H]4C3)cc2)c1", "note": "[Example 42, 5-Methyl-1-(1-(4-((3aR,5r,6aS)-2-(2-(methylsulfonyl)ethyl)octahydrocyclopenta[c]pyrrol-5-yl)benzyl)-1H-indol-5-yl)-1H-pyrazole-3-carboxamide]", "values": [
      {"measurement": "AC50", "setting": "FoxO3a", "result": 69, "unit": "nM"},
      {"measurement": "AC50", "setting": "AKT", "result": 230, "unit": "nM"}
    ]},
    {"smiles": "Cc1cn(Cc2ccc([C@@H]3C[C@@H]4CN(C)C[C@@H]4C3)cc2)c2ccc(-n3nc(C(N)=O)cc3C)cc12", "note": "[Example 43, 5-Methyl-1-(3-methyl-1-(4-((3aR,5r,6aS)-2-methyloctahydrocyclopenta[c]pyrrol-5-yl)benzyl)-1H-indol-5-yl)-1H-pyrazole-3-carboxamide]", "values": [
      {"measurement": "AC50", "setting": "FoxO3a", "result": 215, "unit": "nM"},
      {"measurement": "AC50", "setting": "AKT", "result": 740, "unit": "nM"}
    ]}
  ]
}
